Consider one compound from EPA's ToxValDB 9.5 (doi:10.2903/j.efsa.2016.4503).

In one series the test system is Aphidius rhopalosiphi. In words: LR50; higher = less toxic. The following applies: not reported; mortality.
The test system of another series is Tagia sp. The following applies: chronic/long-term; reproduction.
For a further series, the system named is Bibionidae. The following applies: chronic/long-term; duration: 23 days; reproduction.
Another series relates to Pimephales promelas. The following applies: chronic/long-term; duration: 28 days.
The test system of another series is Coturnix japonica. The following applies: chronic.
For the next series, the system named is Colinus virginianus. The following applies: acute; oral; mortality.
In another series the test system is Oncorhynchus mykiss. The following applies: acute; duration: 96 hours; mortality.
In the next series the test system is Anas platyrhynchos. The following applies: acute; oral; unspecified; mortality.
Another series deals with Apis mellifera. The following applies: acute, mortality.
In the next series the test system is Hypoaspis aculeifer. The following applies: chronic/long-term; reproduction.

Some results are limits rather than exact numbers.

For the compound `Cc1ccc(-c2c(Cl)nc(C#N)n2S(=O)(=O)N(C)C)cc1`, the LR50 in the series with Aphidius rhopalosiphi is more than 209 g/ha. In addition, the NOEC in the series with Tagia sp. was found to be 2 mg/kg; with Bibionidae, 0.0117 mg/L; with Pimephales promelas, 0.09 mg/L; with Hypoaspis aculeifer, 18.7 mg/kg. Also, the NOAEL in the series with Coturnix japonica worked out at 151 mg/kg-day; in the series with Rattus norvegicus (chronic, duration: 2 years, organ weight), 17 mg/kg-day; with Rattus norvegicus (reproduction developmental, body weight), 89 mg/kg-day; with Rattus norvegicus (subchronic, duration: 90 days, oral, organ weight), 29.5 mg/kg-day. Moreover, the LD50 is more than 2000 mg/kg-day with Colinus virginianus; more than 5000 mg/kg in the series with Rattus norvegicus (acute, oral, mortality); more than 2000 mg/kg-day with Anas platyrhynchos; 9.52 µg/piece with Apis mellifera (dermal); more than 31.8 µg/piece in the series on Apis mellifera (oral, unspecified). The LC50 with Oncorhynchus mykiss was more than 0.107 mg/L.

Broadly, the NOAEL is the highest tested level that showed no adverse finding. In general, LC50 refers to the concentration that kills 50% of the test population.
